This note sets out measurements from BindingDB's records for patent US11980598 (Beijing Greatway Pharmaceutical Technology Co., 2024).

The assay addresses T1, 5-hydroxytryptamine receptor 2C (Homo sapiens, UniProt P28335).
T1 sequence (P28335 whole entry): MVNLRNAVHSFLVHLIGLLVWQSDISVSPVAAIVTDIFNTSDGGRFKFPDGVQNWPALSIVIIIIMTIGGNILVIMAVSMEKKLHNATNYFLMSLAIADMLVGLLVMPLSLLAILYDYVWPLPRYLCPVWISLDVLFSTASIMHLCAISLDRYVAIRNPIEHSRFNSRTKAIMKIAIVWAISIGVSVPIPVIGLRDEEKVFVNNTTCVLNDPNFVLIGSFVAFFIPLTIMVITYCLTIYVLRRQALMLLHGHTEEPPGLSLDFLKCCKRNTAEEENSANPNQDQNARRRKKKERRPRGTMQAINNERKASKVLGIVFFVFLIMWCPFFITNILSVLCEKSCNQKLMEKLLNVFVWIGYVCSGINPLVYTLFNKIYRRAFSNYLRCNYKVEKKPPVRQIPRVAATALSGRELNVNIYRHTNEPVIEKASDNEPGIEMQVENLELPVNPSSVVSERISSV
Description: 5-HT2C Receptor Binding Test. The protocol: 50 μg of the receptor membrane protein 5-HT2C was added to all the tubes. […] All the tubes were added with 40 μL of [3H]-LSD (lysergic acid diethylamide), respectively. […] The filter paper was taken out and dried by baking, and then placed in a scintillation bottle. 1 mL of the scintillation liquid was added, and the radioactive intensity was measured by a liquid scintillation counter

A word on the IC50: it is the concentration that inhibits the measured activity by half. `COc1cc2c(CCNC(C)=O)cccc2cc1Cl` [US11980598, Compound 1] came in with an IC50 of 0.77 nM. `COc1cc2c(CCNC(C)=O)cccc2cc1F` [US11980598, Compound 4] registered an IC50 of 20.8 nM.
